{
  "source": "paper PMC4954776",
  "about": "(Nature chemical biology, 2013)",
  "key": {"[1]": {"target": "BRAF kinase domain (residues 444 to 723, BRAF16mut) dimerization (Homo sapiens, UniProt P15056, A688R/F667E/I543A/I544S/I551K/K630S/K723G/L588N/L706S/L716E/P722S/Q562R/Q709R/S713E/Y673S)", "type": "binding", "conditions": "40 μM inhibitor, or 200 μM AMP-PNP / ADP with 200 μM MgCl2; Fig. 5e"}, "[2]": {"target": "T1, PERK kinase domain dimerization (Mus musculus, UniProt Q9Z2B5, DEL661-875)", "T1 sequence (Q9Z2B5 with tags, fused parts or gaps DEL661-875)": "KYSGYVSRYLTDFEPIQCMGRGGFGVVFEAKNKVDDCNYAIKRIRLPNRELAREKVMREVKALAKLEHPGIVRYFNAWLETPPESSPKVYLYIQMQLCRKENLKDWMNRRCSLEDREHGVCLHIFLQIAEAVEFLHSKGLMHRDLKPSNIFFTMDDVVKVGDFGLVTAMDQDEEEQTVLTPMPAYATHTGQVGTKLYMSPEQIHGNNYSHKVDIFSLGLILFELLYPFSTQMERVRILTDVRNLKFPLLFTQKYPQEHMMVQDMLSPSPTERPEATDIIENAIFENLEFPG", "test": "Sedimentation velocity analytical ultracentrifugation of PERK kinase domain", "type": "binding, Murine", "conditions": "saturating concentrations; 40 μM inhibitor, 500 μM ADP with 2 mM MgCl2"}, "[3]": {"target": "BRAFKD/BRAFKD (RlucII-BRAFKD-CAAX / GFP10-BRAFKD-CAAX) (Homo sapiens, UniProt P15056)", "test": "BRET titration curves, BRAFKD homodimerization biosensor", "type": "cell-based", "conditions": "Fig. 1c"}, "[4]": {"tested_on": "RAF family members (ARAF, BRAF, CRAF, KSR1, KSR2) kinase domain dimers", "test": "Panel of RAF dimerization BRET biosensors", "type": "cell-based", "conditions": "for RAFKD dimer induction profile across biosensor panel: dose-response, BRAFKD and CRAFKD acceptor probes, Fig. 2c; for induction of RAF dimerization in kinase inhibitor library screen: collection of 184 compounds, Fig. 5a"}, "CRAF homodimers": {"target": "CRAF homodimers (Homo sapiens, UniProt P04049)", "test": "BRET biosensor CRAF homodimers", "type": "cell-based", "conditions": "Fig. 2c"}, "BRAFKD F595R": {"target": "BRAFKD F595R (Homo sapiens, UniProt P15056, F595R)", "test": "BRET saturation curves, BRAF R spine mutant", "type": "cell-based", "conditions": "Fig. 6c"}, "BRAFKD WT / BRAFKD WT": {"target": "BRAFKD WT / BRAFKD WT (Homo sapiens, UniProt P15056)", "type": "cell-based", "conditions": "33 nM; Fig. 1e"}, "BRAFKD WT / BRAFKD R509H": {"target": "BRAFKD WT / BRAFKD R509H (Homo sapiens, UniProt P15056, R509H)", "type": "cell-based", "conditions": "33 nM; Fig. 1e"}, "BRAF/KSR1 dimers": {"target": "BRAF/KSR1 dimers (Homo sapiens, UniProt P15056+Q8IVT5)", "test": "BRET biosensor BRAF/KSR1 dimers", "type": "cell-based", "conditions": "Fig. 2c"}, "[5]": {"target": "BRAFKD T529M / BRAFKD T529M (Homo sapiens, UniProt P15056, T529M)", "test": "BRET dose-response, BRAFKD T529M gatekeeper mutant homodimerization", "type": "cell-based", "conditions": "Fig. 4g"}, "CRAFKD / BRAFKD [6]": {"target": "T2, CRAFKD / BRAFKD (Homo sapiens, UniProt P04049+P15056)", "test": "BRET dose-response, CAAX-boxed CRAFKD/BRAFKD biosensor", "type": "cell-based", "conditions": "10 μM; Fig. 4b"}, "CRAFKD / BRAFKD [7]": {"target": "T2, CRAFKD / BRAFKD", "test": "High-throughput chemical screen with CRAFKD/BRAFKD biosensor", "type": "cell-based", "conditions": "10 μM screening concentration; Fig. 4a"}, "KSR1KD / MEK1": {"target": "KSR1KD / MEK1 (Homo sapiens, UniProt Q8IVT5)", "test": "BRET selectivity assay, KSR1KD/MEK1 pair", "type": "cell-based", "conditions": "10 μM; Fig. 4b"}, "BRAF/CRAF dimers": {"target": "BRAF/CRAF dimers (Homo sapiens, UniProt P04049+P15056)", "test": "Co-immunoprecipitation of full-length GFP-CRAF and Flag-BRAF", "type": "cell-based", "conditions": "SB202190 and SB203580 10 μM; Fig. 4d"}, "BRAF/BRAF dimers": {"target": "BRAF/BRAF dimers (Homo sapiens, UniProt P15056)", "test": "Co-immunoprecipitation of full-length BRAF/BRAF dimers", "type": "cell-based", "conditions": "10 μM; Fig. 4e"}, "ERK phosphorylation": {"tested_on": "ERK phosphorylation", "test": "ERK phosphorylation in RAF-expressing HEK293T cells", "type": "cell-based", "conditions": "2 μM, Fig. 4f"}, "[8]": {"test": "Solubility in aqueous solution", "type": "physicochemical"}},
  "data": [
    {"smiles": "Nc1ncnc2c1ncn2[C@@H]1O[C@H](COP(=O)(O)OP(=O)(O)O)[C@@H](O)[C@H]1O", "note": "[ADP]", "values": [
      {"measurement": "effect on BRAF kinase domain dimerization relative to apo state", "setting": "[1]", "result": "inhibited dimer formation"},
      {"measurement": "effect on PERK kinase domain dimerization", "setting": "[2]", "result": "weakly promoted dimerization"}
    ]},
    {"smiles": "Nc1ncnc2c1ncn2[C@@H]1O[C@H](COP(=O)(O)OP(=O)(O)NP(=O)(O)O)[C@@H](O)[C@H]1O", "note": "[AMP-PNP]", "values": [
      {"measurement": "effect on BRAF kinase domain dimerization relative to apo state", "setting": "[1]", "result": "inhibited dimer formation"}
    ]},
    {"smiles": "Cc1ccc(NC(=O)c2cccc(C(C)(C)C#N)c2)cc1Nc1ccc2ncn(C)c(=O)c2c1", "note": "[AZ-628]", "values": [
      {"measurement": "effect on BRET50 in titration experiments", "setting": "[3]", "result": "significantly reduced"},
      {"measurement": "RAFKD dimer induction profile across biosensor panel", "setting": "[4]", "result": "strong and broad inducers"},
      {"measurement": "induction of CRAF homodimers", "setting": "CRAF homodimers", "result": "strongly promoted"},
      {"measurement": "dimerization of BRAF R spine mutant (F595R), BRET saturation curves", "setting": "BRAFKD F595R", "result": "promote dimerization"}
    ]},
    {"smiles": "Cc1nc(Nc2ncc(C(=O)Nc3c(C)cccc3Cl)s2)cc(N2CCN(CCO)CC2)n1", "note": "[Dasatinib]", "values": [
      {"measurement": "induction of RAF dimerization in kinase inhibitor library screen", "setting": "[4]", "result": "significant inducers of RAF dimerization"}
    ]},
    {"smiles": "OCCn1cc(-c2ccc3c(c2)CC/C3=N\\O)c(-c2ccncc2)n1", "note": "[GDC-0879]", "values": [
      {"measurement": "effect on BRET50 in titration experiments", "setting": "[3]", "result": "significantly reduced"},
      {"measurement": "time at which BRET induction plateaued", "setting": "BRAFKD WT / BRAFKD WT", "result": "≤ 60", "unit": "min"},
      {"measurement": "time at which activity (BRET induction) could first be detected", "setting": "BRAFKD WT / BRAFKD WT", "result": 5, "unit": "min"},
      {"measurement": "response of R509H mutant biosensor to drug", "setting": "BRAFKD WT / BRAFKD R509H", "result": "insensitive"},
      {"measurement": "RAFKD dimer induction profile across biosensor panel", "setting": "[4]", "result": "strong and broad inducers"},
      {"measurement": "induction of BRAF/KSR1 dimers", "setting": "BRAF/KSR1 dimers", "result": "strongly induced"}
    ]},
    {"smiles": "Cn1cc(-c2ccc3c(c2)CCN3C(=O)Cc2cccc(C(F)(F)F)c2)c2c(N)ncnc21", "note": "[GSK2606414, 7-Methyl-5-(1-{[3-(trifluoromethyl)phenyl]acetyl}-2,3-dihydro-1H-indol-5-yl)-7H-p yrrolo[2,3-d]pyrimidin-4-amine]", "values": [
      {"measurement": "effect on PERK kinase domain dimerization", "setting": "[2]", "result": "potently promotes"}
    ]},
    {"smiles": "Cc1cn(-c2cc(NC(=O)c3ccc(C)c(Nc4nccc(-c5cccnc5)n4)c3)cc(C(F)(F)F)c2)cn1", "note": "[Nilotinib]", "values": [
      {"measurement": "induction of RAF dimerization in kinase inhibitor library screen", "setting": "[4]", "result": "significant inducers of RAF dimerization"}
    ]},
    {"smiles": "CCCS(=O)(=O)Nc1ccc(F)c(C(=O)c2c[nH]c3ncc(Cl)cc23)c1F", "note": "[PLX4720]", "values": [
      {"measurement": "RAFKD dimer induction profile across biosensor panel", "setting": "[4]", "result": "relatively weak RAFKD dimer inducers"}
    ]},
    {"smiles": "Oc1ccc(-c2nc(-c3ccncc3)c(-c3ccc(F)cc3)[nH]2)cc1", "note": "[SB202190]", "values": [
      {"measurement": "effect of T529M gatekeeper mutant on inhibitor-induced BRAFKD homodimerization", "setting": "[5]", "result": "reduces"},
      {"measurement": "effect on CRAFKD/BRAFKD BRET signal", "setting": "CRAFKD / BRAFKD [6]", "result": "induces"},
      {"measurement": "rank among inducers of CRAFKD/BRAFKD dimerization in HTS", "setting": "CRAFKD / BRAFKD [7]", "result": "most potent inducer"},
      {"measurement": "effect on BRET produced by the KSR1KD/MEK1 pair", "setting": "KSR1KD / MEK1", "result": "does not alter"},
      {"measurement": "BRAF/CRAF dimerization by co-immunoprecipitation", "setting": "BRAF/CRAF dimers", "result": "increased BRAF/CRAF dimerization"},
      {"measurement": "BRAF homodimerization by co-immunoprecipitation", "setting": "BRAF/BRAF dimers", "result": "induced BRAF homodimerization"},
      {"measurement": "ERK activity in RAF transfected cells", "setting": "ERK phosphorylation", "result": "stimulated ERK activity"},
      {"measurement": "effect on BRAF kinase domain dimerization relative to apo state", "setting": "[1]", "result": "promoted dimerization"}
    ]},
    {"smiles": "C[S+]([O-])c1ccc(-c2nc(-c3ccncc3)c(-c3ccc(F)cc3)[nH]2)cc1", "note": "(centres unmarked) [SB203580]", "values": [
      {"measurement": "ERK activity in RAF transfected cells", "setting": "ERK phosphorylation", "result": "stimulated ERK activity"}
    ]},
    {"smiles": "CNC(=O)c1cc(Oc2ccc(NC(=O)Nc3ccc(Cl)c(C(F)(F)F)c3)cc2)ccn1", "note": "[Sorafenib]", "values": [
      {"measurement": "RAFKD dimer induction profile across biosensor panel", "setting": "[4]", "result": "relatively weak RAFKD dimer inducers"},
      {"measurement": "solubility in aqueous solution", "setting": "[8]", "result": "limited solubility"}
    ]},
    {"smiles": "Cn1cc(-c2ccc3c(c2)CCN3C(=O)Cc2cc(F)cc(C(F)(F)F)c2)c2c(N)ncnc21", "note": "[close structural analog of GSK2606414, 5-(1-{[3-Fluoro-5-(trifluoromethyl)phenyl]acetyl}-2,3-dihydro-1H-indol-5-yl)-7-methyl-7H-pyrrolo[2,3-d]pyrimidin-4-amine]", "values": [
      {"measurement": "effect on PERK kinase domain dimerization", "setting": "[2]", "result": "strongly promoted dimerization"}
    ]}
  ]
}
